Assay results reported in patent US20240408008A1, “AN IN-SITU GELLING ENEMA OF RIFAMYCIN FOR TREATING POUCHITIS AND DISTAL ULCERATIVE COLITIS” (COSMO TECHNOLOGIES LTD., priority 2021, published 2024).
Values after ≈ are worked out from the molar mass of the structure shown.

Assays:
Type in all cases: cell-based
[1] = system: Eikenella corrodens; experiment: MIC, broth dilution; conditions: DSM8340; Eikenella corrodens (DSM 8340); anaerobic
[2] = system: Clostridium difficile; experiment: MIC, broth dilution; conditions: Clostridioides difficile, anaerobic
Description: (§1) The Minimum Inhibitory Concentration (MIC) is defined as the lowest concentration expressed in mg/L (equivalent to μg/mL) of an antimicrobial ingredient or agent that is bacteriostatic (prevents the visible growth of bacteria). MICs are used to evaluate the antimicrobial efficacy of various compounds by measuring the effect of decreasing concentrations of antibiotic over a defined period in terms of inhibition of microbial population growth. MIC is generally regarded as the most basic laboratory measurement of the activity of an antimicrobial agent against an organism.
(§2) Antimicrobial characteristics of Rifamycin sodium salt was assessed on a panel of selected bacteria involved in pouchitis pathogenesis and a standard broth dilution method was used to determine the MIC of Rifamycin. Briefly, two-fold dilutions of the tested compounds were dispensed in 96 round bottom well plates, each dilution was processed in the liquid culture medium suitable for the tested bacterial species. Bacteria inocula were prepared by a suspension of the microbial strain in sterile water saline and adjusted to a concentration of 0.5McFarland standard corresponding to 1.5×10^8 CFU/ml. A final bacterial concentration of 0.5-1×10^5 CFU/ml was distributed in each well. […] MIC was recorded when there was visible growth in the positive growth control column (bacterial inoculum without test substance). […]

[3] = system: Klebsiella oxytoca; experiment: MIC, broth dilution; conditions: aerobic
[4] = system: Enteroccocus faecium; experiment: MIC, broth dilution; conditions: aerobic
[5] = system: Aggregatibacter actinomycetemcomitans; experiment: MIC, broth dilution; conditions: DSM11123; Aggregatibacter actinomycetemcomitans (DSM 11123); anaerobic
[6] = system: Porphiromonas gingivalis; experiment: MIC, broth dilution; conditions: Porphiromonas gingivalis (DSM 20709); anaerobic
[7] = system: F. nucleatum; experiment: MIC, broth dilution; conditions: Fusobacterium nucleatum, anaerobic
[8] = system: B. bifidum; experiment: MIC, broth dilution; conditions: Bifidobacterium bifidum, DSM20082; B. bifidum (DSM 20082); anaerobic
[9] = system: selected bacteria involved in pouchitis pathogenesis; experiment: MIC, broth dilution, whole panel; conditions: Gram-positive and Gram-negative, aerobic and anaerobic bacteria of Table 3
Description: as §1, §2

[10] = system: Ruminococcus gnavus; experiment: MIC, broth dilution; conditions: Mediterraneibacter gnavus, DSM108212; Ruminococcus gnavus (DSM 108212); anaerobic
[11] = system: E. faecalis; experiment: MIC, broth dilution; conditions: Enterococcus faecalis, aerobic

`CO[C@H]1/C=C/O[C@@]2(C)Oc3c(C)c(O)c4c(O)c(cc(O)c4c3C2=O)NC(=O)/C(C)=C\C=C\[C@H](C)[C@H](O)[C@@H](C)[C@@H](O)[C@@H](C)[C@H](OC(C)=O)[C@@H]1C` [Rifamycin SV] showed an MIC [1] of under 0.3 µg/mL, an MIC ([2]; ATCC17857, C. difficile (ATCC 17857)) of 0.00011 µg/mL (≈ 0.000158 µM) and an MIC ([2]; ATCC43953, Clostridium difficile (ATCC 43953)) of 0.007 µg/mL (≈ 0.01 µM). It also gave an MIC ([3]; DSM6673, Klebsiella oxytoca (DSM 6673)) of 128 µg/mL (≈ 183 µM), an MIC ([3]; Klebsiella oxytoca, ATCC700324, K. oxytoca (ATCC 700324)) of 200 µg/mL (≈ 287 µM) and an MIC ([3]; Klebsiella oxytoca, DSM4798, K. oxytoca (DSM 4798)) of 256 µg/mL (≈ 367 µM). The MIC ([3]; Klebsiella oxytoca, DSM5175, K. oxytoca (DSM 5175)) was 128 µg/mL (≈ 183 µM), the MIC ([4]; Enteroccocus faecium (0808711)) was 100 µg/mL (≈ 143 µM) and the MIC ([4]; Enterococcus faecium, DSM17050, E. faecium (DSM 17050)) was 64 µg/mL (≈ 91.7 µM). It also gave an MIC ([4]; Enterococcus faecium, DSM25697, E. faecium (DSM 25697)) of 1 µg/mL (≈ 1.43 µM), an MIC ([4]; Enterococcus faecium, E. faecium (09006056)) of 100 µg/mL (≈ 143 µM) and an MIC ([4]; Enterococcus faecium, E. faecium (DSM13590)) of 32 µg/mL (≈ 45.9 µM). The MIC [5] was under 0.3 µg/mL, the MIC [6] was under 0.3 µg/mL and the MIC ([7]; DSM15643, F. nucleatum (DSM 15643)) was under 0.03 µg/mL. For the same compound, the MIC ([7]; DSM19507, F. nucleatum (DSM 19507)) was 8 µg/mL (≈ 11.5 µM), the MIC [8] was 1 µg/mL (≈ 1.43 µM) and the “antimicrobial activity in vitro” value [9] was “powerful antimicrobial activity”. The MIC [10] was under 0.03 µg/mL, the MIC ([11]; ATCC29212, E. faecalis (ATCC 29212)) was 50 µg/mL (≈ 71.7 µM) and the MIC ([11]; DSM2570, E. faecalis (DSM 2570)) was 200 µg/mL (≈ 287 µM). For the same compound, the MIC ([11]; DSM2921, E. faecalis (DSM 2921)) was 64 µg/mL (≈ 91.7 µM), the MIC ([11]; DSM2981, E. faecalis (DSM 2981)) was 200 µg/mL (≈ 287 µM) and the MIC ([11]; DSM6134, E. faecalis (DSM 6134)) was 50 µg/mL (≈ 71.7 µM). The MIC ([11]; E. faecalis (6172818861)) was 12.5 µg/mL (≈ 17.9 µM), the MIC ([11]; E. faecalis (C 46)) was 12.5 µg/mL (≈ 17.9 µM) and the MIC ([11]; E. faecalis (E 83)) was 3.12 µg/mL (≈ 4.47 µM).
